The text below walks through data of patent EP3964497A1, “SUBSTITUTED VICINAL DIAMINE COMPOUNDS AND THEIR USE IN THE TREATMENT, AMELIORATION OR PREVENTION OF PAIN” (priority 2020, dated 2022).

Assay [1] addresses T1, µOR (Homo sapiens, UniProt P35372). Kind of assay: competitive radioligand binding with [3H]diprenorphine, membranes of transfected HEK 293T cells. Also noted: expressed in transfected cells; host or cells: HEK 293T cells, transient transfection, membrane preparation. The protocol:
(§1) To verify the subtype selectivity of the described compounds for µOR over δOP and κOR, respectively, the binding affinities of the described examples to the different human opioid receptors in an in-vitro test system were measured.
(§2) For the determination of receptor binding affinity competitive radioligand binding experiments were performed as described in literature (H. Huebner, C. Haubmann, W. Utz, P. Gmeiner, J. Med. Chem., 2000, 43, 756-762). In brief, HEK 293T cells were transiently transfected with the cDNAs coding for the human opioid receptor subtypes µOR, δOR, and kOR, respectively, using a solution of polyethylenimine in PBS (PEI, linear, 25 kDa, Polysciences) as transfection reagent at a 3:1 PEI to cDNA ratio (I. Fish, A. Stoessel, K. Eitel, C. Valant, S. Albold, H. Huebner, D. Moeller, M.J. Clark, R.K. Sunahara, A. Christopoulos, B.K. Shoichet, P. Gmeiner, J. Med. Chem., 2017, 60, 9239-9250). After preparation of membranes, radioligand displacement assays were run in 96-well format at a final volume of 200 µL in binding buffer (50 mM Tris-HCI, 1 mM EDTA, 5 mM MgCl2, 100 µg/mL bacitracin, 5 µg/mL soybean trypsin inhibitor, pH 7.4) with the radioligand [^3H]diprenorphine (specific activity = 31 Ci/mmol) at a final concentration of 0.20-0.30 nM. […] Unspecific binding was determined in the presence of 10 µM of the naloxone. Protein concentrations were determined employing the method of Lowry with bovine serum albumin as standard (O.H. Lowry, N.J. Rosebrough, A.L. Farr, R.J. Randall, J. Biol. Chem., 1951, 193, 265-275). The resulting competition curves of the receptor binding experiments were analyzed by nonlinear regression. The data were initially fit using a sigmoid model to provide IC50 values, which were subsequently transformed to Ki values according to the equation of Cheng and Prusoff (Y.-C. Cheng, W. H. Prusoff, Biochem. Pharmacol., 1973, 22, 3099-3108). Three to seven experiments per compound were performed, with each concentration in triplicate.

For assay [2], the target named is T1, µOR. Kind of assay: G-protein mediated signaling, IP1 accumulation assay (HTRF) in HEK-293T cells with hybrid G-protein Gαqi. Format: cell-based. On the set-up: expressed in transfected cells; host or cells: HEK-293T cells, transient transfection. The protocol: (§3) Functionally selective drugs, which are biased towards Gi protein activation over β-arrestin signaling at the µOR are indicated to show an improved side effect profile. Thus, the characterization of the functional properties of the described examples at the µOR were performed by determination of the ligand stimulated G-protein related signaling and β-arrestin recruitment applying cell based in-vitro test systems. Full and partial agonists as well as antagonists for G protein related signaling were identified.
The determination of G-protein stimulated µOR activation was measured applying an IP1 accumulation assay as described previously (J. Kruell, S.K. Fehler, L. Hofmann, N. Nebel, S. Maschauer, O. Prante, P. Gmeiner, H. Lanig, H. Huebner, M.R. Heinrich. ChemMedChem 2020, 15, 1175-1186. C. Gentzsch, K. Seier, A. Drakopoulos, M.-L. Jobin, Y. Lanoiselee, Z. Koszegi, D. Maurel, R. Sounier, H. Huebner, P. Gmeiner, S. Granier, D. Calebiro, M. Decker. Ang. Chem. Int. Ed. 2020, 59, 2-9). In brief, HEK-293T cells were grown to confluence of approximately 70% and transiently transfected with the cDNA of the human µOR receptor and the hybrid G-protein Gαqi. After one day cells were seeded into 384-well microplates. For testing cells were incubated with test compounds (final range of concentration from 1 pM up to 10 µM) for 180 min at 37 °C followed by addition of detection reagents. Time resolved fluorescence resonance energy transfer (HTRF) was determined using a microplate reader. Each compound was tested in duplicates in 3-9 individual experiments in comparison to the reference compound DAMGO. The resulting dose response curves were analyzed by nonlinear regression using the algorithms in PRISM 6.0 (GraphPad software, San Diego, CA), fitted with a sigmoid model and normalized to basal activity (0 %) and the maximal effect caused by the reference full agonist DAMGO (100 %).
(§4) In the above table, the numbers indicate mean EC50 values in nM and Emax values relative to the full effect of reference agonist DAMGO [=100%], respectively and are derived from 3-9 individual experiments for G-protein signaling and 3-8 tests for arrestin recruitment. ND = not determined.

Assay [3] addresses T2, δOR (Homo sapiens, UniProt P41143).
T2 construct: expressed in transfected cells; host or cells: HEK 293T cells, transient transfection, membrane preparation
Kind of assay: competitive radioligand binding with [3H]diprenorphine, membranes of transfected HEK 293T cells. The procedure: as §1, §2

Assay [4] concerns the target T1, µOR. Kind of assay: β-arrestin-2 recruitment, enzyme-fragment complementation assay in HEK-293 cells. Format: cell-based. Also noted: expressed in transfected cells; host or cells: HEK-293 cells stably expressing EA-tagged β-arrestin-2, transiently transfected with µOR-PK1. The procedure:
as §3
Measurement of β-arrestin-2 recruitment was done applying an enzyme-fragment complementation assay as described previously (C. Gentzsch, K. Seier, A. Drakopoulos, M.-L. Jobin, Y. Lanoiselee, Z. Koszegi, D. Maurel, R. Sounier, H. Huebner, P. Gmeiner, S. Granier, D. Calebiro, M. Decker. Ang. Chem. Int. Ed. 2020, 59, 2-9. J. Hellmann, M. Drabek, J. Yin, J. Gunera, T. Proell, F. Kraus, C.J. Langmead, H. Huebner, D. Weikert, P. Kolb, D.M. Rosenbaum, P. Gmeiner. PNAS 2020, 117, 18059-18067). In brief, HEK-293 cells stably expressing the enzyme acceptor (EA) tagged β-arrestin-2 fusion protein were transiently co-transfected with the ProLink tagged µOR-PK1 After 24 h cells were transferred into 384-well microplates and cultured for further 24 h. To start arrestin recruitment compounds were added to the cells to get a final concentration in a range of 10 pM to 100 µM. After incubation for 90 min reaction was stopped by addition of detection mix. Chemiluminescence was determined in duplicates (3-8 individual experiments for each compound in comparison to the reference agonist DAMGO). Data analysis was done as described above.
as §4

Assay [5] concerns the target T3, κOR (Homo sapiens, UniProt P41145).
T3 construct: expressed in transfected cells; host or cells: HEK 293T cells, transient transfection, membrane preparation
Kind of assay: competitive radioligand binding with [3H]diprenorphine, membranes of transfected HEK 293T cells. Particulars: radioligand [3H]diprenorphine; number in brackets = number of experiments; read-out: mean Ki value κOR. The protocol: as §1
After preparation of membranes, radioligand displacement assays were run in 96-well format at a final volume of 200 µL in binding buffer (50 mM Tris-HCI, 1 mM EDTA, 5 mM MgCl2, 100 µg/mL bacitracin, 5 µg/mL soybean trypsin inhibitor, pH 7.4) with the radioligand [^3H]diprenorphine (specific activity = 31 Ci/mmol) at a final concentration of 0.20-0.30 nM. […] Unspecific binding was determined in the presence of 10 µM of the naloxone. […] The resulting competition curves of the receptor binding experiments were analyzed by nonlinear regression. […] Three to seven experiments per compound were performed, with each concentration in triplicate.

In the case of `CN(C)[C@H](CNC(=O)/C=C/c1ccsc1)Cc1ccc(O)cc1` [Example 19, (S,E)-N-(2-(Dimethylamino)-3-(4-hydroxyphenyl)propyl)-3-(thiophen-3-yl)acrylamide], the Ki was 8.5 nM in assay [1], 59 nM in assay [3] and 130 nM in assay [5]. In assay [2], this compound gave a concentration giving a half-maximal response (EC50) of 7.5 nM. Also, the maximal effect (Emax) in assay [2] (HEK-293T, read-out: G-protein signaling Emax) was 53%; in assay [4] (HEK293, relative to the full effect of reference agonist DAMGO [=100%]) it was less than 5%. Also, the “β-arrestin recruitment EC50” value in assay [4] (mean of 3-8 tests, 90 min incubation, CBA = could not be analyzed (no dose-response curve)) was “CBA”.
